Data set [1] addresses U937 Phosphodiesterase IV (PDE IV). The data set is described as follows: Inhibition of U937 Phosphodiesterase IV (PDE IV). The format is biochemical. To be noted: inhibitory activity on PDE-IV; enzyme preparation from U937 cells, [3H]cAMP SPA assay, CI-930 10 μM present. Here is the method:
(a) Inhibition of U937 Phosphodiesterase IV (PDE IV)
Cultured U937 cells were washed twice and harvested with phosphate-buffered saline (PBS) by cell-scraper. After centrifugation, the cell pellet was suspended in homogenizing buffer (0.5% deoxycholate [DOC], 5 mM 2-mercaptoethanol, 1 μM leupeptin, 100 μM PMSF, 20 μM p-tosyl-L-lysine-chloromethyl ketone [TLCK] in PBS). The cell suspension was then sonicated for a couple of minutes and homogenized by a glass-Teflon homogenizer with twenty strokes. The homogenate was centrifuged at 200 g for 30 minutes, and the supernatant was further ultra-centrifuged at 100,000×g for 90 minutes (4° C.). The final supernatant was dialyzed against dialysis buffer, which was the same component as homogenizing buffer without DOC. The dialysate of enzyme preparation was stored at −20° C. until assay.
PDE4, activity was estimated with a Phosphodiesterase [^3H]cAMP SPA Enzyme Assay System (Amersham Pharmacia Biotech), using a 96 well Opti-plate. Reactions were initiated by addition of 0.025 μCi/well of [^3H]cAMP to the enzyme mixture containing 50 mM Tris-HCl (pH 7.5), 8.3 mM MgCl2, 1.7 mM EGTA, and various concentrations of the test compound or vehicle. CI-930 (10 μM in final), a specific PDE3, inhibitor, was also added in the reaction mixture. After incubation at 30° C. for 15 minutes, 50 μL of SPA beads suspension was added to each well. The well-plate was then shaken for 20 minutes by a plate mixer. Radio-activity in each well was counted by a Top Counter.
Test compounds were dissolved in 100% dimethylsulfoxide (DMSO) and diluted into respective concentrations with the final solution containing 1% v/v of DMSO.
IC50 values of test compounds for the enzyme activity of PDE4 was determined from regression analysis for log-logit conversion values of percent inhibition in the compound-treated tubes compared to that of the control. Percent inhibition was calculated with the following equation: Inhibition (%)={1−(C−B)/(A−B)}×100; in which A, B and C means mean values of radio-activity counts (dpm) of control, blank and the compound-treated tubes, respectively.

Data set [2] relates to TNF-alpha production in rat peripheral blood mononuclear cells (PBMC). The data set is described as follows: Inhibition on TNF-alpha production in rat mononuclear cells. Type of data set: cell-based. As to conditions: inhibitory activity on TNF-alpha production, LPS 1 μg/mL, 24 hours, ELISA. Here is the method:
(b) Inhibition on TNF-alpha Production in Rat Mononuclear Cells 1. Test Method (1) Rat Peripheral Blood Mononuclear Cells (PBMC) Preparation
Male Wistar rat at the age of 15 weeks was anesthetized with ether and the blood (about 15 ml) was collected with a disposable syringe from the abdominal artery under celiotomy. Collected blood was transferred to a heparin containing polyethylene tube and an equal volume of RPMI1640 was added to each tube. Diluted blood was then piled tip to 20 ml of Lympholyte-Rat (Cedarlane Laboratories, Canada) in polystyrene centrifuge tube. After centrifugation at 3,000 rpm for 30 minutes, cells gathering in the center area of the gradient were collected by capillary and washed with 40 mL of RPMI1640 by twice of centrifugation at 1,200 rpm for 10 minutes. Precipitate was then suspended in 10 ml of Tris-ammonium-chloride buffer and stood for 10 minutes in order to lyse remaining erythrocytes. After centrifugation at 1,200 rpm for 10 minutes, the precipitate was washed twice with 50 ml of RPMI1640 by centrifugation. PBMC finally precipitated were suspended in RPMI1640 containing 1% fetal bovine serum and antibiotics. After cell counting, final suspension at 3×10^6 cells/mL in culture medium was prepared.
(2) TNF-alpha Production from Stimulated PBMCs
Rat PBMC prepared by the density gradient method using Lympholyte-Rat, were suspended in the culture medium mentioned above with the concentration of 3×10^6 cells/mL and 0.5 ml of the suspension was sowed into each well of a 24-well culture plate. Cells were incubated in the CO2 incubator for 24 hours with 0.25 ml of LPS in addition of 0.25 ml of concentrations of drugs or vehicle at the start of the incubation. Final concentration of LPS in the incubation medium was 1 μg/mL. After 24 hours, the supernatant of each well by centrifugation at 1,700 rpm for 10 minutes was stored at −80° C. until assay. TNF-alpha levels in the medium were measured by ELISA.
The IC50 values of drugs on cytokine productions in LPS stimulated PBMC were estimated by the regression analysis for the relative values of cytokine level in the drug-treated wells compared to those of the vehicle-treated ones.
Background: An ELISA detects its analyte on a solid surface through an enzyme-linked reagent.

The structures appear in SMILES notation.

By IC50 is commonly meant the midpoint of a concentration-inhibition curve. The term melting point denotes the temperature of the solid-liquid transition. Turning to `CCn1ncc2c(-c3cncc(Br)c3)c(C#N)c(C)nc21` [Example 73, 4-(5-bromo-3-pyridyl)-1-ethyl-6-methyl-1H-pyrazolo[3,4-b]pyridine-5-carbonitrile], the melting point is 165 to 166 °C. The compound further returned an IC50 in data set [1] below 1000 nM. Also, 27 nM corresponded to half-maximal inhibition in data set [2] (IC50).
On the same counts, the results for `CCn1ncc2c(-c3cncc(Br)c3)c(/C=C/C(=O)O)c(C)nc21` [Example 84, (2E)-3-[4-(5-Bromo-3-pyridyl)-1-ethyl-6-methyl-1H-pyrazolo[3,4-b]pyridin-5-yl]acrylic acid] are 189 to 190 °C, below 1000 nM and 62.7 nM.
On the same counts, the results for `CCn1ncc2c(-c3cncc(C)c3)c(/C=C/C(=O)O)c(COCC3CCCCC3)nc21` [Example 89, (2E)-3-[6-[(Cyclohexylmethoxy)methyl]-1-ethyl-4-(5-methyl-3-pyridyl)-1H-pyrazolo[3,4-b]pyridin-5-yl]acrylic acid] are 172 to 173 °C, below 1000 nM and 85.6 nM.
As for `CCn1ncc2c(-c3cncc(C)c3)c(/C=C/C(=O)O)c(-c3ccccc3)nc21` [Example 91, (2E)-3-[1-Ethyl-4-(5-methyl-3-pyridyl)-6-phenyl-1H-pyrazolo[3,4-b]pyridin-5-yl]acrylic acid], the figures for the concentration for half-maximal inhibition (IC50) in data set [1] and in data set [2] were below 1000 nM and 15.7 nM, respectively.
`CCn1ncc2c(-c3cncc(Cl)c3)c(/C=C/C(=O)O)c(C(C)C)nc21` [Example 228, (2E)-3-[4-(5-Chloro-3-pyridyl)-1-ethyl-6-isopropyl-1H-pyrazolo[3,4-b]pyridin-5-yl]acrylic acid] showed a melting point of 218 to 220.5 °C.
The compound `CCn1ncc2c(-c3cncc(C)c3)c(CCC(=O)O)c(C3CCC3)nc21` [Example 230, 3-[6-cyclobutyl-1-ethyl-4-(5-methyl-3-pyridyl)-1H-pyrazolo[3,4-b]pyridin-5-yl]propanoic acid] had a melting point of 212 to 213 °C.
On the same count and under the same terms, with `CCn1ncc2c(-c3cncc(Cl)c3)c(/C=C/C(=O)O)c(COC)nc21` [Example 231, (2E)-3-[4-(5-chloro-3-pyridyl)-1-ethyl-6-(methoxymethyl)-1H-pyrazolo[3,4-b]pyridin-5-yl]acrylic acid] the figure was 187 to 188 °C.
On to `CCOCc1nc2c(cnn2CC)c(-c2cncc(C)c2)c1/C=C/C(=O)O` [Example 234, (2E)-3-[6-(Ethoxymethyl)-1-ethyl-4-(5-methyl-3-pyridyl)-1H-pyrazolo[3,4-b]pyridin-5-yl]acrylic acid], for which the melting point is 187 to 188 °C.
Same read-out and setting: with `CCn1ncc2c(-c3cncc(C)c3)c(/C=C/C(=O)O)c(CC(C)(C)C)nc21` [Example 236, (2E)-3-[6-(2,2-Dimethylpropyl)-1-ethyl-4-(5-methyl-3-pyridyl)-1H-pyrazolo[3,4-b]pyridin-5-yl]acrylic acid] the figure was 216 to 217.5 °C; with `CCn1ncc2c(-c3cncc(C)c3)c(/C=C/C(=O)O)c(COC(C)C)nc21` [Example 240, (2E)-3-[1-Ethyl-6-(isopropoxymethyl)-4-(5-methyl-3-pyridyl)-1H-pyrazolo[3,4-b]pyridin-5-yl]acrylic acid], 198 to 199 °C.
Same read-out and setting: with `CCn1ncc2c(-c3cncc(C)c3)c(CCC(=O)O)c(CC3CC3)nc21` [Example 241, 3-[6-(Cyclopropylmethyl)-1-ethyl-4-(5-methyl-3-pyridyl)-1H-pyrazolo[3,4-b]pyridin-5-yl]propanoic acid] the figure was 184 to 185 °C; with `CCn1ncc2c(-c3ccnc(C)c3)c(/C=C/C(=O)O)c(C(C)C)nc21` [Example 242, (2E)-3-[1-Ethyl-6-isopropyl-4-(2-methyl-4-pyridyl)-1H-pyrazolo[3,4-b]pyridin-5-yl]acrylic acid], 260 to 262.5 °C.
On the same count and under the same terms, the same measure for `CCC(CC)NC(=O)c1c(-c2ccccc2)nc2c(cnn2CC)c1-c1cncc(C)c1` [Example 245, 1-Ethyl-N-(1-ethylpropyl)-4-(5-methyl-3-pyridyl)-6-phenyl-1H-pyrazolo[3,4-b]pyridine-5-carboxamide]: 170 to 172 °C; for `CCn1ncc2c(-c3cncc(C)c3)c(C(=O)NCCOc3ccccc3)c(-c3ccccc3)nc21` [Example 246, 1-Ethyl-4-(5-methyl-3-pyridyl)-N-(2-phenoxyethyl)-6-phenyl-1H-pyrazolo[3,4-b]pyridine-5-carboxamide]: 175 to 176 °C; for `CCn1ncc2c(-c3cncc(C)c3)c(C(=O)NCC3CCCCC3)c(-c3ccccc3)nc21` [Example 247, N-(Cyclohexylmethyl)-1-ethyl-4-(5-methyl-3-pyridyl)-6-phenyl-1H-pyrazolo[3,4-b]pyridine-5-carboxamide]: 197 to 199 °C.
`CCn1ncc2c(-c3cncc(C)c3)c(CCC(=O)O)c(C3CC3)nc21` [Example 343, 3-[6-Cyclopropyl-1-ethyl-4-(5-methyl-3-pyridyl)-1H-pyrazolo[3,4-b]pyridin-5-yl]propanoic acid] came in with a melting point of 205 to 207 °C.
Same read-out and setting: with `CCn1ncc2c(-c3cncc(C)c3)c(CCC(=O)O)c(CC(C)C)nc21` [Example 344, 3-[1-Ethyl-6-isobutyl-4-(5-methyl-3-pyridyl)-1H-pyrazolo[3,4-b]pyridin-5-yl]propanoic acid] the figure was 190 to 191 °C.
Turning to `CCC(CC)c1nc2c(cnn2CC)c(-c2cncc(C)c2)c1CCC(=O)O` [Example 346, 3-[1-Ethyl-6-(1-ethylpropyl)-4-(5-methyl-3-pyridyl)-1H-pyrazolo[3,4-b]pyridin-5-yl]propanoic acid], the melting point lay in the range of 144 to 145 °C.
Still for that read-out and setting: the same measure for `CCn1ncc2c(-c3cncc(C)c3)c(CCC(=O)O)c(CC(C)(C)C)nc21` [Example 349, 3-[6-(2,2-Dimethylpropyl)-1-ethyl-4-(5-methyl-3-pyridyl)-1H-pyrazolo[3,4-b]pyridin-5-yl]propanoic acid]: 221 to 223 °C; for `CCn1ncc2c(-c3ccnc(C)c3)c(CCC(=O)O)c(C(C)C)nc21` [Example 351, 3-[1-Ethyl-6-isopropyl-4-(2-methyl-4-pyridyl)-1H-pyrazolo[3,4-b]pyridin-5-yl]propanoic acid]: 187 to 189 °C.
